# Laboratory results: patent publication US4076802A (priority 1977, dated 1978)
# Where two headings read alike, the source gives them in different places.
# Assays:
# Solubility in solvents = format: physicochemical
# mice = assay: 24 hour acute toxicity in mice; format: in vivo
# [1] = system: Candida albicans 155 (yeast); assay: Antifungal MIC, Table 5; format: cell-based; conditions: Culture NRRL 477
# [2] = system: Saccharomyces cerevisiae 90 (yeast); assay: Antifungal MIC, Table 5; format: cell-based; conditions: Culture ATCC 4226
# [3] = system: Paecilomyces varioti M16 (fungus); assay: Antifungal MIC, Table 5; format: cell-based; conditions: Culture ATCC 26820
# [4] = system: Penicillium digitatum 0184 (mold); assay: Antifungal MIC, Table 5; format: cell-based; conditions: Culture ATCC 26821
# [5] = system: Piricularia oryzae (rice blast disease); conditions: in vivo
# [6] = system: Puccinia species (cereal rust disease); assay: Activity against plant disease fungi on several crops; format: in vivo
# [7] = system: Uromyces species (cereal rust disease); assay: as above; format: in vivo
# [8] = system: Botrytis cinerea (grey mold diseases); assay: as above; format: in vivo
# [9] = system: Rhizoctonia solani (damping off diseases); assay: as above; format: in vivo
# Colorado potato beetle = assay: Larvicidal activity; format: in vivo
# army worm = assay: Larvicidal activity; format: in vivo
# housefly = assay: Larvicidal activity; format: in vivo
# bean beetle = assay: Larvicidal activity; format: in vivo
# mosquito larvae = assay: Larvicidal activity; format: in vivo
# KB cells = assay: KB monolayer cytotoxicity test; format: cell-based, human
# crown rust of oats = assay: Fungicidal activity; format: in vivo; conditions: spraying as 25% wettable powder
# wood decay organisms = assay: Fungicidal activity; format: in vivo; conditions: spraying as 25% wettable powder
smiles,measurement,setting,value
C/C=C/[C@H]1O[C@@](O)([C@@H](C)[C@H](O)[C@H](C)[C@H]2OC(=O)/C(OC)=C/C(C)=C/[C@@H](C)[C@@H](O)[C@@H](CC)[C@@H](O)[C@H](C)C/C(C)=C/C=C/[C@@H]2OC)C[C@@H](O[C@H]2C[C@@H](O)[C@H](OC(N)=O)[C@@H](C)O2)[C@@H]1C,solubility,Solubility in solvents; in 95% ethanol,47.5 mg/mL
same,solubility,Solubility in solvents; in acetone,> 100 mg/mL
same,solubility,Solubility in solvents; in benzyl alcohol,> 100 mg/mL
same,solubility,Solubility in solvents; in dimethylformamide,> 100 mg/mL
same,solubility,Solubility in solvents; in glycerine,< 1 mg/mL
same,solubility,Solubility in solvents; in methanol,> 100 mg/mL
same,solubility,Solubility in solvents; in polyethylene glycol 400,< 1 mg/mL
same,solubility,Solubility in solvents; in propylene glycol,< 1 mg/mL
same,solubility,Solubility in solvents; in tetrahydrofuran,> 100 mg/mL
same,solubility,Solubility in solvents; in water,< 1 mg/mL
same,24 hour acute toxicity (LD50),mice; i.p.,2.45 mg/kg
same,24 hour acute toxicity (LD50),mice; p.o.,21 mg/kg
same,MIC value,[1],1.11 µg/mL
same,MIC value,[2],3.33 µg/mL
same,MIC value,[3],3.33 µg/mL
same,MIC value,[4],3.33 µg/mL
same,activity against Piricularia oryzae,[5],active
same,fungicidal activity,[5],exhibits fungicidal activity
same,activity against Puccinia species,[6],active
same,activity against Uromyces species,[7],active
same,fungicidal activity,"[8]; grey mold, spraying as 25% wettable powder",exhibits fungicidal activity
same,activity against Botrytis cinerea,[8]; on several crops,active
same,activity against Rhizoctonia solani,[9],active
same,larvicidal activity,Colorado potato beetle,excellent activity
same,larvicidal activity,Colorado potato beetle; spraying on leaves,exhibits larvicidal activity
same,larvicidal activity,army worm,excellent activity
same,larvicidal activity,housefly,excellent activity
same,larvicidal activity,bean beetle,excellent activity
same,larvicidal activity,bean beetle; spraying on leaves,exhibits larvicidal activity
same,larvicidal activity,mosquito larvae; mosquito larvae,excellent activity
same,larvicidal activity,"mosquito larvae; mosquito, spraying",exhibits larvicidal activity
same,ID50,KB cells,0.0045 µg/mL
same,fungicidal activity,crown rust of oats,exhibits fungicidal activity
same,fungicidal activity,wood decay organisms,exhibits fungicidal activity
